This passage reports IC50 results from patent US20260176289A1, “SMALL MOLECULE INHIBITORS OF KRAS PROTEINS” (Merck Sharp & Dohme LLC, priority 2022, published 2026).

Assay type in all cases: biochemical
The target in experiment [1] is T1, KRAS G12C (amino acids 1-169) (Homo sapiens, UniProt P01116, G12C).
T1 construct: made in house; host or cells: E. coli
The experiment is described as follows: SOS-catalyzed nucleotide exchange assay (Procedure B, BODIPY FL GDP displacement), KRAS G12C. The conditions noted are these: read-out: KRAS G12C GNE IC50. The method in brief: (§1)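 Purified BODIPY FL GDP-loaded KRAS (aa 1-169, E. coli-expressed), 2.5 nM, preincubated with compound 1 h at 25° C in Tris pH 7.5/MgCl2 buffer; SOS1 (aa 564-1049) plus GMPPNP then added, 30 min at room temperature. Fluorescence ratio before/after exchange normalized to DMSO and no-SOS1/GMPPNP controls; IC50 by 4-parameter logistic fit.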

Experiment [2] deals with T2, KRAS G12D (amino acids 1-169) (Homo sapiens, UniProt P01116, G12D).
T2 construct: made in house; host or cells: E. coli
The experiment is described as follows: SOS-catalyzed nucleotide exchange assay (Procedure B, BODIPY FL GDP displacement), KRAS G12D. The note with it: read-out: KRAS G12D GNE IC50. The method in brief: as §1

Experiment [3] concerns the target T3, KRAS G12V (amino acids 1-169) (Homo sapiens, UniProt P01116, G12V).
T3 construct: made in house; host or cells: E. coli
The experiment is described as follows: SOS-catalyzed nucleotide exchange assay (Procedure B, BODIPY FL GDP displacement), KRAS G12V. The conditions noted are these: read-out: KRAS G12V GNE IC50. The method in brief:
as §1

Experiment [4] concerns the target T4, KRAS WT (amino acids 1-169) (Homo sapiens, UniProt P01116).
T4 construct: made in house; host or cells: E. coli
The experiment is described as follows: SOS-catalyzed nucleotide exchange assay (Procedure B, BODIPY FL GDP displacement), KRAS WT. The note with it: read-out: KRAS WT GNE IC50. The gist of the method: as §1

T4 sequence (P01116 with tags, fused parts or gaps isoform P01116-2): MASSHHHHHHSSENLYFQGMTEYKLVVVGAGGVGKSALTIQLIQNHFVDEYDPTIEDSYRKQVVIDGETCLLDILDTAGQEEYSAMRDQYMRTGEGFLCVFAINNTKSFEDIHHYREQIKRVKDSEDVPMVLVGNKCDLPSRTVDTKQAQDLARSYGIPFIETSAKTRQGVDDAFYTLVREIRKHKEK
T1 sequence (P01116 with tags, fused parts or gaps isoform P01116-2 G12C): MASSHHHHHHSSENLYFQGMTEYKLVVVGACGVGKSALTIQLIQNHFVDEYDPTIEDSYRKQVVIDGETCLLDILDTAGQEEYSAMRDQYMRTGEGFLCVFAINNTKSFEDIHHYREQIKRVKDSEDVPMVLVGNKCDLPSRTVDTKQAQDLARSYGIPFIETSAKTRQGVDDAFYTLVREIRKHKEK
T3 sequence (P01116 with tags, fused parts or gaps isoform P01116-2 G12V): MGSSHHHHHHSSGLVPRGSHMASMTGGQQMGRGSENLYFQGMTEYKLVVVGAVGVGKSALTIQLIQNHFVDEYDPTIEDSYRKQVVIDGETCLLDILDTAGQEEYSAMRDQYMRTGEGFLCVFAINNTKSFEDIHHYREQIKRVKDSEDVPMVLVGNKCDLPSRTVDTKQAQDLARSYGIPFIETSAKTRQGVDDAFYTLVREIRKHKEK
T2 sequence (P01116 with tags, fused parts or gaps isoform P01116-2 G12D): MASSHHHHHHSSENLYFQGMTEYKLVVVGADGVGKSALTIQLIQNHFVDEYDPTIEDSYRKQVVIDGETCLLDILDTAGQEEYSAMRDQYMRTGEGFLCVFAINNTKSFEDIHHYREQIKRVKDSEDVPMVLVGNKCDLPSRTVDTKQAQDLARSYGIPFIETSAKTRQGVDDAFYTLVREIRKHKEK

Regarding `Cc1cc2[nH]ncc2c(-c2nccc3c2sc2nc(OC[C@@]45CCCN4C[C@H](F)C5)nc(N4C[C@H](O)C[C@H]4C)c23)c1C(F)(F)F` [Ex-183, (3R,5R)-1-(2-(((2R,7aS)-2-fluorotetrahydro-1H-pyrrolizin-7a(5H)-yl)methoxy)-8-(6-methyl-5-(trifluoromethyl)-1H-indazol-4-yl)pyrido[4′,3′: 4,5]thieno[2,3-d]pyrimi-din-4-yl)-5-methylpyrrol-idin-3-ol], the IC50 in experiment [1] amounted to 2880 nM; in experiment [2] it was 2190 nM; in experiment [3] it was 4640 nM; in experiment [4] it was 2990 nM.

As to `C=CC1CCc2cc3[nH]ncc3c(-c3nccc4c3sc3nc(OC[C@@]56CCCN5C[C@H](F)C6)nc(N5CCOC[C@@](C)(O)C5)c34)c21` (single isomer, unassigned) [Ex-93], the concentration for half-maximal inhibition (IC50) in experiment [1] was found to be 7.03 nM; in experiment [2] it was 1.64 nM; in experiment [3] it was 3.7 nM; in experiment [4], 3.13 nM.

Turning to `Cc1cc2[nH]ncc2c(-c2nccc3c2sc2nc(OC[C@@]45CCCN4C[C@H](F)C5)nc(NC45CC(C4)C5)c23)c1C(F)(F)F` [Ex-181, N-(bicyclo[1.1.1]pentan-1-yl)-2-(((2R,7aS)-2-fluoro-tetrahydro-1H-pyrrolizin-7a(5H)-yl)-methoxy)-8-(6-methyl-5-(trifluoromethyl)-1H-indazol-4-yl)pyrido [4′,3′:4,5]thieno[2,3-d] pyrimidin-4-amine], the IC50 in experiment [1] turned out to be 787 nM; in experiment [2] it was 1320 nM; in experiment [3], 758 nM; in experiment [4] it was 1480 nM.

`CC1c2c(cc3[nH]ncc3c2-c2nccc3c2sc2nc(OC[C@@]45CCCN4C[C@H](F)C5)nc(N4CCOC[C@@](C)(O)C4)c23)CC1(F)F` (single isomer, unassigned) [Ex-107]: the 50% inhibitory concentration (IC50) in experiment [1] is 19.8 nM; in experiment [2] it was 3.81 nM; in experiment [3], 9.52 nM; in experiment [4] it was 6.2 nM.

Consider `CCC1CC(F)(F)c2cc3[nH]ncc3c(-c3nccc4c3sc3nc(OC[C@@]56CCCN5C[C@H](F)C6)nc(N5CCOC[C@@](C)(O)C5)c34)c21` (stereo partly drawn) [Ex-102, (6S)-4-(8-(5-ethyl-7,7-difluoro-1,5,6,7-tetrahydrocyclopenta[f]in-dazol-4-yl)-2-(((2R,7aS)-2-fluorotetrahydro-1H-pyrrolizin-7a(5H)-yl)methoxy)pyrido[4′,3′:4,5]thi-eno[2,3-d]pyrimidin-4-yl)-6-methyl-1,4-oxazepan-6-ol], for which the IC50 turned out to be 10.3 nM in experiment [1], 3.56 nM in experiment [2], 10.4 nM in experiment [3] and 7.84 nM in experiment [4].

`C[C@@]1(O)COCCN(c2nc(OC[C@@]34CCCN3C[C@H](F)C4)nc3sc4c(-c5c(-c6cnco6)c(Cl)cc6[nH]ncc56)nccc4c23)C1` [Ex-75, (6S)-4-(8-(6-chloro-5-(oxazol-5-yl)-1H-indazol-4-yl)-2-(((2R,7aS)-2-fluorotetrahydro-1H-pyrrolizin-7a(5H)-yl)methoxy)pyrido[4′,3′:4,5]thi-eno[2,3-d]pyrimidin-4-yl)-6-methyl-1,4-oxazepan-6-ol]: the IC50 came out at 56 nM in experiment [1], 19.3 nM in experiment [2], 118 nM in experiment [3] and 60.8 nM in experiment [4].

Consider `C#CC1CCc2cc3[nH]ncc3c(-c3nccc4c3sc3nc(OC[C@@]56CCCN5C[C@H](F)C6)nc(N5CCOC[C@@](C)(O)C5)c34)c21` (stereo partly drawn) [Ex-166, (6S)-4-(8-(5-ethyn-yl-1,5,6,7-tetrahydro-cyclopenta[f]indazol-4-yl)-2-(((2R,7aS)-2-fluorotetrahydro-1H-pyrrolizin-7a(5H)-yl)methoxy)-pyrido[4′,3′:4,5]thieno[2,3-d]pyr-imidin-4-yl)-6-meth-yl-1,4-oxazepan-6-ol], for which the IC50 in experiment [1] was determined as 18 nM; in experiment [2] it was 6.65 nM; in experiment [3] it was 15.8 nM; in experiment [4] it was 12.4 nM.

Turning to `CC(=O)c1c(C(F)(F)F)cc2[nH]ncc2c1-c1nccc2c1sc1nc(OC[C@@]34CCCN3C[C@H](F)C4)nc(N3CCOC[C@@](C)(O)C3)c12` [Ex-59], the half-inhibitory concentration (IC50) in experiment [1] was 183 nM; in experiment [2] it was 71.9 nM; in experiment [3], 125 nM; in experiment [4], 112 nM.

`C[C@@]1(O)COCCN(c2nc(OC[C@@]34CCCN3C[C@H](F)C4)nc3sc4c(-c5c(-c6ccco6)c(Cl)cc6[nH]ncc56)nncc4c23)C1` [Ex-282]: the IC50 in experiment [1] amounted to 5.84 nM; in experiment [2] it was 4.26 nM; in experiment [3], 12.5 nM; in experiment [4], 13.5 nM.

On to `C#Cc1n[nH]c2cc(C)c(C(F)(F)F)c(-c3nccc4c3sc3nc(OC[C@@]56CCCN5C[C@H](F)C6)nc(N5CCOC[C@@](C)(O)C5)c34)c12` [Ex-151, (6S)-4-(8-(3-ethynyl-6-methyl-5-(trifluoromethyl)-1H-indazol-4-yl)-2-(((2R,7aS)-2-fluorotetrahydro-1H-pyrrolizin-7a(5H)-yl)methoxy)pyrido[4′,3′:4,5]thieno[2,3-d]pyrimidin-4-yl)-6-methyl-1,4-oxazepan-6-ol], for which the IC50 in experiment [1] worked out at 572 nM; in experiment [2], 393 nM; in experiment [3] it was 1180 nM; in experiment [4] it was 690 nM.

Consider `Cc1cc2[nH]ncc2c(-c2nccc3c2sc2nc(OC[C@@]45CCCN4C[C@H](F)C5)nc(N4CCOCC(C)C4)c23)c1C(F)(F)F` (stereo partly drawn) [Ex-182, 4-(2-(((2R,7aS)-2-fluoro-tetrahydro-1H-pyrrolizin-7a(5H)-yl)methoxy)-8-(6-methyl-5-(trifluorometh-yl)-1H-indazol-4-yl)pyrido [4′,3′:4,5]thieno[2,3-d]pyr-imidin-4-yl)-6-methyl-1,4-oxazepane], for which the IC50 in experiment [1] amounted to 1260 nM; in experiment [2], 3630 nM; in experiment [3], 3200 nM; in experiment [4] it was 2190 nM.

As for `COCC1CCc2cc3[nH]ncc3c(-c3nccc4c3sc3nc(OC[C@@]56CCCN5C[C@H](F)C6)nc(N5CCOC[C@@](C)(O)C5)c34)c21` (single isomer, unassigned) [Ex-97], the IC50 was 9.73 nM in experiment [1], 3.16 nM in experiment [2], 7.19 nM in experiment [3] and 8.37 nM in experiment [4].

On to `CCCC1CCc2cc3[nH]ncc3c(-c3nccc4c3sc3nc(OC[C@@]56CCCN5C[C@H](F)C6)nc(N5CCOC[C@@](C)(O)C5)c34)c21` (some centres unmarked) [Ex-95], for which the IC50 turned out to be 91.5 nM in experiment [1], 49.8 nM in experiment [2], 65 nM in experiment [3] and 99.4 nM in experiment [4].

As to `Cc1cc2[nH]ncc2c(-c2nccn3c2c(C)c2nc(OC[C@@]45CCCN4C[C@H](F)C5)nc(N4CCOC[C@@](C)(O)C4)c23)c1C1CC1` [Ex-298, (S)-4-(9-(5-cyclopropyl-6-methyl-1H-indazol-4-yl)-2-(((2R,7aS)-2-fluorotetrahydro-1H-pyrrolizin-7a(5H)-yl)methoxy)-10-methylpyrazi-no[1′,2′:1,5]pyrrolo[3,2-d]pyrimidin-4-yl)-6-methyl-1,4-oxazepan-6-ol], the IC50 in experiment [1] came out at 85.2 nM; in experiment [2], 49.8 nM; in experiment [3], 159 nM; in experiment [4], 113 nM.
